The NIST ThermoML archive (doi:10.1021/je400056z)
Numbers after ± are expanded uncertainties.

Experiment: xn = mol fraction of the nth substance listed
Conditions: Liquid, Vibrating tube method

CCCCCCC [heptane] + O=C=O
Conditions	mass density [kg/m3]
312.02 K, 10986 kPa, x2 = 0.9496	729.05 ± 0.62
312.02 K, 12001 kPa, x2 = 0.9496	747.88 ± 0.6
312.02 K, 13001 kPa, x2 = 0.9496	763.05 ± 0.54
312.02 K, 13981 kPa, x2 = 0.9496	776.11 ± 0.5
312.02 K, 15000 kPa, x2 = 0.9496	787.02 ± 0.47
312.02 K, 16006 kPa, x2 = 0.9496	797.48 ± 0.45
312.02 K, 16997 kPa, x2 = 0.9496	806.48 ± 0.43
312.02 K, 18005 kPa, x2 = 0.9496	814.74 ± 0.41
312.02 K, 19001 kPa, x2 = 0.9496	822.53 ± 0.4
312.02 K, 19995 kPa, x2 = 0.9496	829.62 ± 0.39
312.02 K, 20996 kPa, x2 = 0.9496	836.32 ± 0.39
312.02 K, 22002 kPa, x2 = 0.9496	842.78 ± 0.38
312.02 K, 23003 kPa, x2 = 0.9496	848.74 ± 0.37
312.02 K, 24007 kPa, x2 = 0.9496	854.47 ± 0.37
312.02 K, 24361 kPa, x2 = 0.9496	856.44 ± 0.37
312.94 K, 5011 kPa, x2 = 0.3148	693.37 ± 0.29
312.94 K, 6008 kPa, x2 = 0.3148	694.74 ± 0.29
312.94 K, 7004 kPa, x2 = 0.3148	696.16 ± 0.3
312.94 K, 8002 kPa, x2 = 0.3148	697.62 ± 0.31
312.94 K, 8997 kPa, x2 = 0.3148	699.03 ± 0.31
312.94 K, 9991 kPa, x2 = 0.3148	700.6 ± 0.32
312.94 K, 11000 kPa, x2 = 0.3148	701.81 ± 0.33
312.94 K, 12009 kPa, x2 = 0.3148	703.08 ± 0.33
312.94 K, 13002 kPa, x2 = 0.3148	704.39 ± 0.34
312.94 K, 13992 kPa, x2 = 0.3148	705.63 ± 0.35
312.94 K, 15009 kPa, x2 = 0.3148	706.99 ± 0.36
312.94 K, 16009 kPa, x2 = 0.3148	708.23 ± 0.36
312.94 K, 16997 kPa, x2 = 0.3148	709.2 ± 0.37
312.94 K, 18018 kPa, x2 = 0.3148	710.45 ± 0.38
312.94 K, 19015 kPa, x2 = 0.3148	711.73 ± 0.39
312.94 K, 20006 kPa, x2 = 0.3148	712.83 ± 0.39
312.94 K, 21008 kPa, x2 = 0.3148	713.93 ± 0.4
312.94 K, 22010 kPa, x2 = 0.3148	715.06 ± 0.41
312.94 K, 23004 kPa, x2 = 0.3148	716.14 ± 0.42
312.94 K, 24017 kPa, x2 = 0.3148	717.34 ± 0.42
312.94 K, 24997 kPa, x2 = 0.3148	718.41 ± 0.44
312.98 K, 7014 kPa, x2 = 0.7514	729.2 ± 0.32
312.98 K, 8012 kPa, x2 = 0.7514	733.47 ± 0.33
312.98 K, 8996 kPa, x2 = 0.7514	737.34 ± 0.33
312.98 K, 10005 kPa, x2 = 0.7514	741.22 ± 0.33
312.98 K, 10989 kPa, x2 = 0.7514	744.88 ± 0.31
312.98 K, 12007 kPa, x2 = 0.7514	748.38 ± 0.32
312.98 K, 12994 kPa, x2 = 0.7514	751.74 ± 0.33
312.98 K, 14005 kPa, x2 = 0.7514	754.92 ± 0.34
312.98 K, 14990 kPa, x2 = 0.7514	758 ± 0.34
312.98 K, 16009 kPa, x2 = 0.7514	761.15 ± 0.35
312.98 K, 17002 kPa, x2 = 0.7514	764.01 ± 0.36
312.98 K, 17990 kPa, x2 = 0.7514	766.8 ± 0.36
312.98 K, 19008 kPa, x2 = 0.7514	769.54 ± 0.37
312.98 K, 20006 kPa, x2 = 0.7514	772.19 ± 0.37
312.98 K, 21018 kPa, x2 = 0.7514	774.69 ± 0.38
312.98 K, 21997 kPa, x2 = 0.7514	777.23 ± 0.38
312.98 K, 23004 kPa, x2 = 0.7514	779.67 ± 0.39
312.98 K, 23994 kPa, x2 = 0.7514	782.07 ± 0.4
312.98 K, 24571 kPa, x2 = 0.7514	783.46 ± 0.6
313.03 K, 5011 kPa, x2 = 0.5085	706.14 ± 0.29
313.03 K, 6005 kPa, x2 = 0.5085	708.31 ± 0.29
313.03 K, 7004 kPa, x2 = 0.5085	710.37 ± 0.3
313.03 K, 8011 kPa, x2 = 0.5085	712.42 ± 0.31
313.03 K, 8996 kPa, x2 = 0.5085	714.37 ± 0.31
313.03 K, 10001 kPa, x2 = 0.5085	716.4 ± 0.32
313.03 K, 11006 kPa, x2 = 0.5085	718.29 ± 0.32
313.03 K, 11994 kPa, x2 = 0.5085	720.05 ± 0.33
313.03 K, 13000 kPa, x2 = 0.5085	721.92 ± 0.34
313.03 K, 14002 kPa, x2 = 0.5085	723.71 ± 0.34
313.03 K, 15010 kPa, x2 = 0.5085	725.36 ± 0.35
313.03 K, 16006 kPa, x2 = 0.5085	727.16 ± 0.36
313.03 K, 17002 kPa, x2 = 0.5085	728.84 ± 0.36
313.03 K, 18023 kPa, x2 = 0.5085	730.55 ± 0.37
313.03 K, 19009 kPa, x2 = 0.5085	732.08 ± 0.37
313.03 K, 20003 kPa, x2 = 0.5085	733.69 ± 0.38
313.03 K, 21000 kPa, x2 = 0.5085	735.25 ± 0.39
313.03 K, 22016 kPa, x2 = 0.5085	736.75 ± 0.39
313.03 K, 23006 kPa, x2 = 0.5085	738.31 ± 0.4
313.03 K, 24019 kPa, x2 = 0.5085	739.74 ± 0.41
313.03 K, 25004 kPa, x2 = 0.5085	741.18 ± 0.42
313.08 K, 2007 kPa, x2 = 0.0218	670.88 ± 0.27
313.08 K, 3009 kPa, x2 = 0.0218	671.95 ± 0.28
313.08 K, 4008 kPa, x2 = 0.0218	673.02 ± 0.28
313.08 K, 5014 kPa, x2 = 0.0218	674.05 ± 0.29
313.08 K, 6010 kPa, x2 = 0.0218	675.07 ± 0.3
313.08 K, 7005 kPa, x2 = 0.0218	676.19 ± 0.31
313.08 K, 8174 kPa, x2 = 0.0218	677.13 ± 0.31
313.08 K, 9005 kPa, x2 = 0.0218	678.13 ± 0.32
313.08 K, 10008 kPa, x2 = 0.0218	679.18 ± 0.33
313.08 K, 11000 kPa, x2 = 0.0218	680.15 ± 0.34
313.08 K, 12009 kPa, x2 = 0.0218	681.11 ± 0.35
313.08 K, 13002 kPa, x2 = 0.0218	682.02 ± 0.35
313.08 K, 14006 kPa, x2 = 0.0218	683 ± 0.36
313.08 K, 15004 kPa, x2 = 0.0218	683.85 ± 0.37
313.08 K, 16007 kPa, x2 = 0.0218	684.89 ± 0.38
313.08 K, 17002 kPa, x2 = 0.0218	685.71 ± 0.39
313.08 K, 18005 kPa, x2 = 0.0218	686.44 ± 0.4
313.08 K, 19010 kPa, x2 = 0.0218	687.37 ± 0.41
313.08 K, 20009 kPa, x2 = 0.0218	688.24 ± 0.42
313.08 K, 21004 kPa, x2 = 0.0218	689.1 ± 0.42
313.08 K, 22010 kPa, x2 = 0.0218	689.97 ± 0.43
313.08 K, 23003 kPa, x2 = 0.0218	690.81 ± 0.44
313.08 K, 24007 kPa, x2 = 0.0218	691.63 ± 0.45
313.08 K, 24906 kPa, x2 = 0.0218	692.41 ± 0.46
322.85 K, 5012 kPa, x2 = 0.3148	682.49 ± 0.29
322.85 K, 6012 kPa, x2 = 0.3148	684.11 ± 0.3
322.85 K, 7008 kPa, x2 = 0.3148	685.75 ± 0.3
322.85 K, 8009 kPa, x2 = 0.3148	687.35 ± 0.31
322.85 K, 8996 kPa, x2 = 0.3148	688.86 ± 0.32
322.85 K, 10005 kPa, x2 = 0.3148	690.36 ± 0.33
322.85 K, 11012 kPa, x2 = 0.3148	691.87 ± 0.33
322.85 K, 11996 kPa, x2 = 0.3148	693.32 ± 0.34
322.85 K, 13003 kPa, x2 = 0.3148	694.75 ± 0.35
322.85 K, 14006 kPa, x2 = 0.3148	696.09 ± 0.36
322.85 K, 15010 kPa, x2 = 0.3148	697.48 ± 0.36
322.85 K, 16003 kPa, x2 = 0.3148	698.79 ± 0.37
322.85 K, 17009 kPa, x2 = 0.3148	700.14 ± 0.38
322.85 K, 18001 kPa, x2 = 0.3148	701.39 ± 0.39
322.85 K, 19012 kPa, x2 = 0.3148	702.67 ± 0.39
322.85 K, 20007 kPa, x2 = 0.3148	703.86 ± 0.4
322.85 K, 21000 kPa, x2 = 0.3148	705.12 ± 0.41
322.85 K, 22017 kPa, x2 = 0.3148	706.33 ± 0.42
322.85 K, 23010 kPa, x2 = 0.3148	707.55 ± 0.42
322.85 K, 23985 kPa, x2 = 0.3148	708.71 ± 0.43
322.85 K, 25004 kPa, x2 = 0.3148	709.93 ± 0.44
322.91 K, 8013 kPa, x2 = 0.7514	707.83 ± 0.34
322.91 K, 8994 kPa, x2 = 0.7514	712.85 ± 0.34
322.91 K, 10015 kPa, x2 = 0.7514	717.65 ± 0.35
322.91 K, 10996 kPa, x2 = 0.7514	722.08 ± 0.37
322.91 K, 12005 kPa, x2 = 0.7514	726.29 ± 0.35
322.91 K, 13025 kPa, x2 = 0.7514	730.31 ± 0.35
322.91 K, 13986 kPa, x2 = 0.7514	733.99 ± 0.35
322.91 K, 15009 kPa, x2 = 0.7514	737.66 ± 0.36
322.91 K, 16002 kPa, x2 = 0.7514	741.14 ± 0.36
322.91 K, 17007 kPa, x2 = 0.7514	744.51 ± 0.36
322.91 K, 17997 kPa, x2 = 0.7514	747.63 ± 0.36
322.91 K, 19009 kPa, x2 = 0.7514	750.74 ± 0.37
322.91 K, 20004 kPa, x2 = 0.7514	753.71 ± 0.37
322.91 K, 21008 kPa, x2 = 0.7514	756.6 ± 0.37
